Test results reported in patent US11427546B2, “Form of isoquinoline sulfonamide” (D. WESTERN THERAPEUTICS INSTITUTE, INC., priority 2018, dated 2022).
Entries after “also recorded” stand apart in the source; their conditions may differ. Counter-ions that a name gives are not always drawn.

Tests used:
Type in all cases: physicochemical
[1] = Moisture absorption stability comparative test in the ambient atmosphere; settings: ambient atmosphere 25° C.-28° C./67%-83% RH; for appearance (moisture absorption): Day 7
Procedure: Moisture Absorption Stability Comparative Test in the Ambient Atmosphere
About 100 mg of each of the compound (1) obtained in Reference Example 1 and the compound (2) of the present invention obtained in an Example was weighed out in a plastic container and allowed to stand in the ambient atmosphere (25° C.-28° C./67%-83% RH), while minimizing the influence of wind pressure, foreign matter entry, and the like from above and all directions, for 7 days. On Day 0 and Day 7, samples were weighed and examined for appearance.

[2] = Heat stability comparative test; settings: 70° C., airtight glass vial
Procedure: Heat Stability Comparative Test
About 20 mg of each of the compound (1) of Reference Example 1 and the crystal of the compound (2) of the present invention obtained in an Example was weighed out in a glass vial and stored in a thermostat chamber kept at 70° C. in an airtight state (NA-100N Incubator from NISSIN) for 14 days. On Day 0, Day 7, and Day 14, compound (1) and the compound (2) of the present invention were examined for appearance and purity (HPLC).

[3] = Water solubility comparative test; settings: for transparency of aqueous solution by visual observation: about 100 mg in 2 mL purified water (5% aqueous solution), room temperature; for precipitate in aqueous solution: about 100 mg in 2 mL purified water, 1 day later
Procedure: Water Solubility Comparative Test
About 100 mg of each of the compound (1) of Reference Example 1 and the crystal of the compound (2) of the present invention was weighed out in a glass vial, 2 mL of purified water was added, and the mixture was vigorously shaken in an airtight state. After being allowed to stand until the liquid surface fluctuation ceased, the aqueous solution was examined for transparency by visual observation at room temperature.

[4] = Moisture absorption stability comparative test at 50° C./70% RH
Procedure: Moisture Absorption Stability Comparative Test at 50° C./70% RH
A 100-mg weight of each of the crystals of compounds (3) and (4) obtained in Reference Examples 2 and 3, respectively, and the compound (2) of the present invention obtained in an Example was weighed out in a plastic container and allowed to stand under 50° C./70% RH conditions in a thermo-hygrostat chamber (IH400 from Yamato Scientific Co., Ltd.).

SMILES	appearance (moisture absorption) [1]	appearance / property (heat stability) ([2]; Day 7, monohydrochloride)	transparency of aqueous solution by visual observation ([3]; monohydrochloride)	precipitate in aqueous solution [3]	appearance change due to moisture absorption ([4]; after 1 hour of standing)	percent increase in weight ([1]; Day 7, about 100 mg solid)	weight increase ([4]; after 1 hour of standing, 100 mg solid)	change (appearance, weight) after prolonged standing ([4]; after 3 days of standing)	appearance and purity (HPLC) (heat stability) ([2]; Day 14)	transparency of aqueous solution by visual observation [3]
C[C@H](CNC[C@@](C)(O)c1ccccc1)NS(=O)(=O)c1ccc2cnccc2c1.Cl [compound (1), N—[(R)-1-{(S)-2-hydroxy-2-phenylpropylamino}propan-2-yl]isoquinoline-6-sulfonamide monohydrochloride, reference compound]	evident moisture absorption phenomenon	marked property degradation; also recorded: unstable with an evident change in appearance	translucent; also recorded: translucent and had not dissolved completely	a precipitate was found	–	–	–	–	–	–
C[C@H](CNC[C@H](C)c1ccccc1)NS(=O)(=O)c1ccc2cnccc2c1.Cl.Cl [compound (4), N—[(R)-1-{(R)-2-phenyipropylamino}propan-2-yl]isoquinoline-6-sulfonamide dihydrochloride, reference compound]	–	–	–	–	marked appearance change due to moisture absorption	–	–	–	–	–
C[C@H](CNCCc1ccccc1)NS(=O)(=O)c1ccc2cnccc2c1.Cl.Cl [compound (3), (R)—N-{1-(phenetylamino)propan-2-yl}isoquinoline-6-sulfonamide dihydrochloride, reference compound]	–	–	–	–	marked appearance change due to moisture absorption	–	–	–	–	–
C[C@H](CNC[C@@](C)(O)c1ccccc1)NS(=O)(=O)c1ccc2cnccc2c1 [compound (2), N—[(R)-1-{(S)-2-hydroxy-2-phenylpropylamino}propan-2-yl]isoquinoline-6-sulfonamide dihydrochloride anhydride]	no weight gain or appearance change	–	–	no precipitate was found	no appearance change	did not at all exhibit any weight change; also recorded: no weight gain	no appearance change nor weight gain; also recorded: did not at all exhibit any weight change	no change was observed	stable, with no change in appearance nor decomposition; also recorded: stable	extremely clear, showing complete dissolution; also recorded: colorless and clear
